Test results: patent publication US11376328B2, “Pharmaceutical composition” (Astellas Pharma Inc., priority 2017, dated 2022)
≈ marks a conversion by molar mass, not a printed value.

Test: Solubility in water of the drug substance
Assay type: physicochemical
Settings: drug substance as used
Text: The drug solubility in water of a drug may be determined, for example, in accordance with the method described in the General Notices of The Japanese Pharmacopoeia, Seventeenth Edition.

Structure (SMILES): Cc1cccc(C)c1N(CC(=O)Nc1ccc(-c2ncon2)cc1)C(=O)C1CCS(=O)(=O)CC1 [amenamevir]
- solubility at 30 min (water, 20 °C, thermodynamic from solid): 5 µg/mL (≈ 10.4 µM)

Structure (SMILES): C=CC[C@@H]1/C=C(\C)C[C@H](C)C[C@H](OC)[C@H]2O[C@@](O)(C(=O)C(=O)N3CCCC[C@H]3C(=O)O[C@H](/C(C)=C/[C@@H]3CC[C@@H](O)[C@H](OC)C3)[C@H](C)[C@@H](O)CC1=O)[C@H](C)C[C@@H]2OC [tacrolimus]
- Solubility in water: 4 µg/mL (≈ 4.97 µM)
